The source of these data is US20120059162A1, “FUSED IMIDAZOLE DERIVATIVE HAVING TTK INHIBITORY ACTION” (Oncotherapy Science, Inc., priority 2009, published 2012).

The target of one assay is T1, TTK (Homo sapiens, UniProt P33981).
T1 sequence (P33981 1-857): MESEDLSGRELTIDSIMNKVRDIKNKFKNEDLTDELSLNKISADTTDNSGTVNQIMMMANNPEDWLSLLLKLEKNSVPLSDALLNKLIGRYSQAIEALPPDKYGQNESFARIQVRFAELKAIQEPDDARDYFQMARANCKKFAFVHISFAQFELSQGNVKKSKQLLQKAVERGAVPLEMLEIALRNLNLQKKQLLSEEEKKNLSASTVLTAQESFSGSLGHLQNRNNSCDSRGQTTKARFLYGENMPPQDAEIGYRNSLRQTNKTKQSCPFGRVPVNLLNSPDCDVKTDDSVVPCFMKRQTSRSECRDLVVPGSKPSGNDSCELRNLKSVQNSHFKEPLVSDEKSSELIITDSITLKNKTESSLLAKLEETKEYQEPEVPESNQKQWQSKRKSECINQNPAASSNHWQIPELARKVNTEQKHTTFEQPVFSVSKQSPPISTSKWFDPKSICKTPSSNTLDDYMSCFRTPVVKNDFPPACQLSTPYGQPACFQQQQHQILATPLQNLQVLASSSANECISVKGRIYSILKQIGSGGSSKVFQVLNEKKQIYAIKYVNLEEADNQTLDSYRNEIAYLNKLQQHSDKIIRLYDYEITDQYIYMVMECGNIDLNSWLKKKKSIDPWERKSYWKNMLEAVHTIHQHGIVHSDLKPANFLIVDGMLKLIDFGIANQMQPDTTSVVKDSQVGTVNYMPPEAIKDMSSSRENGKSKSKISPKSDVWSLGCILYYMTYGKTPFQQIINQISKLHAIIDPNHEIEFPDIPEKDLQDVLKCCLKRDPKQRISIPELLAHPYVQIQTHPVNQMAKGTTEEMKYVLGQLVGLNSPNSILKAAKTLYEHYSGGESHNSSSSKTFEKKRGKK
Put plainly: TTK assay: screening of TTK kinase activity suppressing action using p38 MAPK peptide. In kind it is biochemical. The method, then:
Screening of a compound having a TTK kinase activity suppressing action using p38 MAPK peptide
A test substance 1.0 μL (solvent: 10% (v/v) DMSO), TTK solution 5 μL (composition: 4 μg/ml TTK, 25 mM Tris-HCl, pH7.5, 5 mM β-glycerophosphate, 2 mM DTT, 0.1 mM Na3VO4, 5 mM MgCl2, 0.1% (w/v)BSA) and a substrate solution 5 μL (composition: 60 μM p38 MAPK peptide, 60 μM ATP, 25 mM Tris-HCl, pH7.5, 5 mM β-glycerophosphate, 2 mM DTT, 0.1 mM Na3VO4, 5 mM MgCl2, 0.1% (w/v)BSA) were mixed in the wells of a 384-well microtiter plate (manufactured by Corning Incorporated) made of polypropylene and loaded in a constant temperature and humidity room.
From the resultant mixture, an aliquot of 1.7 μL was taken out and mixed with the reaction terminating solution (60 μl) in the wells of a 384-well microtiter plate (manufactured by Corning Incorporated) made of polypropylene. Thereafter, 40 μL of the mixture was transferred to a 384-well black NeutrAvidin plate (PIERCE), sealed and incubated under room temperature for 30 minutes. […] Similarly, the plate was washed with TTBS (100 μL) three times, 40 μl of a secondary antibody solution (Eu-N1 labeled Anti-mouse IgG (Perkin Elmer, #AD0124)) was added and incubated under room temperature for 30 minutes. After the plate was washed with TTBS (100 μL) five times, 40 μL of an enhance solution (Perkin Elmer) was added and incubated under room temperature for 5 minutes. […] Based on the fluorescence value in the absence of a test substance, the suppression activity of a test substance was measured.

In the next assay the test system is A549. Put plainly: A549 assay: screening of cancer cell growth inhibiting compound. In kind it is cell-based. To be noted: Homo sapiens. The method, then: Screening of Cancer Cell Growth Inhibiting Compound
A cell suspension solution (RERF-LC-AI, A549: 1×10^4/ml, MRC5: 3×10^4/ml and 1×10^5/ml) adjusted to an appropriate concentration with D-MEM (hereinafter, referred to as a culture solution and manufactured by Nacalai Tesque Inc.) supplemented with 10% FBS (HyClone) was added to the wells of a 96-well plate (hereinafter, well plate) at a rate of 100 μL/well and incubated in a CO2 incubator at 37° C. for a day. […] Next, cells were added to each well of the well plate prepared and the above compound dilution solution was added at a rate of 100 μL/well to obtain 200 μL/well. Thereafter, the cells were incubated in the CO2 incubator at 37° C. for further three days. To each well of the well plate, 10 μL of a WST-8 kit (Kishida Chemical Co., Ltd.) solution for counting the number of cells was added and a color reaction was performed in the CO2 incubator for 1 to 4 hours. After the absorbance at 450 nm (reference wavelength: 620 nm) was measured by a microplate reader, suppressing action of the test substance was calculated based on the absorbance value in the absence of a test substance.

Setting [1] is: p38 MAPK peptide substrate, read-out: TTK IC50.
Where [2] appears, read: 72 h, A549 cells, three days, WST-8, read-out: A549 IC50.
The mark [3] stands for this setting: A549, 72 h, read-out: A549 IC50 (μM).

The structures appear in SMILES notation. Read-outs that look alike come from different tables or passages of the source.

One may read the IC50 as the point on the concentration scale where inhibition reaches its midpoint.

`N#Cc1ccc(-c2cn3c(-c4ccc(C(=O)NC5CC5)cc4)cnc3c(NCc3cccs3)n2)cc1` [Example 1-212]: the values for the IC50 on TTK (setting [1]) and with A549 (setting [2]) were 7.2 nM and 0.05 to 0.5 µM, respectively. Consider `N#CCCNc1nc(-c2ccc(C#N)cc2)cn2c(-c3ccc(C(=O)NC4CC4)cc3)cnc12` [Example 1-213], for which the IC50 is 16.1 nM on TTK (setting [1]) and 0.05 to 0.5 µM in the assay on A549 (setting [2]). As for `N#Cc1ccc(-c2cn3c(-c4ccc(C(=O)NC5CC5)cc4)cnc3c(NCCSCCO)n2)cc1` [Example 1-214], the IC50 was 6.7 nM at TTK (setting [1]) and 0.05 to 0.5 µM in the assay on A549 (setting [2]). As to `N#Cc1ccc(-c2cn3c(-c4ccc(C(=O)NC5CC5)cc4)cnc3c(NCCN3CCOCC3)n2)cc1` [Example 1-216], the IC50 on TTK (setting [1]) was 20.4 nM; with A549 (setting [2]), 0.05 to 0.5 µM. The corresponding values for `N#Cc1ccc(-c2cn3c(-c4ccc(C(=O)NC5CC5)cc4)cnc3c(NCCOCCO)n2)cc1` [Example 1-217] are 48.9 nM and 1 to 10 µM. `N#Cc1ccc(-c2cn3c(-c4ccc(C(=O)NC5CC5)cc4)cnc3c(NCCCO)n2)cc1` [Example 1-218]: the IC50 at TTK (setting [1]) was 14.4 nM; in the assay with A549 (setting [2]), 0.05 to 0.5 µM. With `N#Cc1ccc(-c2cn3c(-c4ccc(C(=O)NC5CC5)cc4)cnc3c(NCC3CC3)n2)cc1` [Example 1-219], the values for the IC50 on TTK (setting [1]) and in the assay with A549 (setting [2]) were 9.5 nM and 0.05 to 0.5 µM, respectively. Take `N#Cc1ccc(-c2cn3c(-c4ccc(C(=O)NC5CC5)cc4)cnc3c(NCc3nccs3)n2)cc1` [Example 1-220]: the IC50 is 19.6 nM at TTK (setting [1]) and 0.05 to 0.5 µM with A549 (setting [2]). In the case of `N#Cc1ccc(-c2cn3c(-c4ccc(C(=O)NC5CC5)cc4)cnc3c(NCCC3CCOCC3)n2)cc1` [Example 1-221], the IC50 on TTK (setting [1]) is 9.5 nM; with A549 (setting [2]), 0.05 to 0.5 µM. The corresponding values for `N#Cc1ccc(-c2cn3c(-c4ccc(C(=O)NC5CC5)cc4)cnc3c(NCC3COCCO3)n2)cc1` (stereo not drawn) [Example 1-222] are 16.8 nM and 0.05 to 0.5 µM. Take `N#Cc1ccc(-c2cn3c(-c4ccc(C(=O)NC5CC5)cc4)cnc3c(NCCS(=O)(=O)N3CCCC3)n2)cc1` [Example 1-224]: the figures for the IC50 at TTK (setting [1]) and in the assay on A549 (setting [2]) were 18.3 nM and 0.5 to 1 µM, respectively.

In the case of `N#Cc1ccc(-c2cn3c(-c4ccc(C(=O)NC5CC5)cc4)cnc3c(NCCc3cccc(O)c3)n2)cc1` [Example 1-226], the IC50 at TTK (setting [1]) is 17.1 nM; in the assay on A549 (setting [2]), 0.5 to 1 µM.

As to `N#Cc1ccc(-c2cn3c(-c4ccc(C(=O)NC5CC5)cc4)cnc3c(NCCc3ccc(O)cc3)n2)cc1` [Example 1-228], the IC50 on TTK (setting [1]) is 20.5 nM; in the assay with A549 (setting [2]) it was 0.5 to 1 µM. Take `CC(=O)N1CCC(CNc2nc(-c3ccc(C#N)cc3)cn3c(-c4ccc(C(=O)NC5CC5)cc4)cnc23)CC1` [Example 1-233]: the IC50 was 20.2 nM on TTK (setting [1]) and 0.5 to 1 µM with A549 (setting [2]).

`CC(C)(O)CNc1nc(-c2ccc(C#N)cc2)cn2c(-c3ccc(C(=O)NC4CC4)cc3)cnc12` [Example 1-235]: the concentration for half-maximal inhibition (IC50) was 12.8 nM on TTK (setting [1]) and 0.05 to 0.5 µM in the assay with A549 (setting [2]). For the compound `N#Cc1ccc(-c2cn3c(-c4ccc(C(=O)NC5CC5)cc4)cnc3c(NCC(F)F)n2)cc1` [Example 1-236], the half-inhibitory concentration (IC50) at TTK (setting [1]) was 8.3 nM; in the assay with A549 (setting [2]), 0.05 to 0.5 µM. Consider `N#Cc1ccc(-c2cn3c(-c4ccc(C(=O)NC5CC5)cc4)cnc3c(NCCOCCOCCO)n2)cc1` [Example 1-237], for which the IC50 on TTK (setting [1]) is 39.9 nM; with A549 (setting [2]) it was 1 to 10 µM. For `N#Cc1ccc(-c2cn3c(-c4ccc(C(=O)NC5CC5)cc4)cnc3c(NCCCCO)n2)cc1` [Example 1-238], the IC50 at TTK (setting [1]) is 14.3 nM; in the assay on A549 (setting [2]) it was 0.05 to 0.5 µM. For `N#Cc1ccc(-c2cn3c(-c4ccc(C(=O)NC5CC5)cc4)cnc3c(NC[C@H]3CC[C@H](C(=O)O)CC3)n2)cc1` [Example 1-239], the IC50 is 4.8 nM at TTK (setting [1]) and 1 to 10 µM with A549 (setting [2]).

For the compound `O=C(NC1CC1)c1ccc(-c2cnc3c(NCC4CCOCC4)nc(C=C4CCCCC4)cn23)cc1` [Example 1-248], the IC50 in the assay on A549 (setting [2]) fell in the range of 1 to 10 µM. As to `CC(=O)N1CC=C(c2cn3c(-c4ccc(C(=O)NC5CC5)cc4)cnc3c(NCC3CCOCC3)n2)CC1` [Example 1-249], the IC50 in the assay with A549 (setting [2]) is 0.5 to 1 µM.

Take `O=C(NC1CC1)c1ccc(-c2cnc3c(NCC4CCOCC4)nc(CC4CCCCC4)cn23)cc1` [Example 1-250]: the IC50 with A549 (setting [2]) was in the range of 1 to 10 µM.

Regarding `CC(C)CNc1cc(NC2CCCCC2)nn2c(-c3ccc(C(=O)NC4CC4)cc3)cnc12` [Example 2-2, 4-(6-(Cyclohexylamino)-8-(isobutylamino)imidazo[1,2-b]pyridazin-3-yl)-N-cyclopropylbenzamide], the IC50 against TTK is 11.8 nM; in the assay with A549 (setting [3]), 0.05 to 0.5 µM. Turning to `NC(=O)c1ccc(-c2cc(NCC3CCOCC3)c3ncc(-c4ccc(C(=O)NC5CC5)cc4)n3n2)cc1` [Example 2-4, 4-(6-(4-Carbamoylphenyl)-8-((tetrahydro-2H-pyran-4-yl)methylamino)imidazo[1,2-b]pyridazin-3-yl)-N-cyclopropylbenzamide], the values for the IC50 at TTK (setting [1]) and in the assay with A549 (setting [2]) were 4.5 nM and 1 to 10 µM, respectively. Turning to `O=C(NC1CC1)c1ccc(-c2cc(NCC3CCOCC3)c3ncc(-c4ccc(C(=O)NC5CC5)cc4)n3n2)cc1` [Example 2-6, 4,4′-(8-((Tetrahydro-2H-pyran-4-yl)methylamino)imidazo[1,2-b]pyridazine-3,6-diyl)bis(N-cyclopropylbenzamide)], the values for the IC50 at TTK (setting [1]) and in the assay on A549 (setting [2]) were 11.9 nM and 0.05 to 0.5 µM, respectively. For the compound `CC(C)CNc1cc(-c2ccccc2)nn2c(-c3ccc(C(=O)NC4CC4)cc3)cnc12` [Example 2-7], in the assay with A549 (setting [3]), the IC50 was 0.5 to 1 µM. As to `Cc1nc(C)c(-c2cc(NCC(C)C)c3ncc(-c4ccc(C(=O)NC5CC5)cc4)n3n2)s1` [Example 2-8], the IC50 in the assay with A549 (setting [2]) was in the range of 0.5 to 1 µM.

As for `Cc1nc(C)c(-c2cc(NCC3CCOCC3)c3ncc(-c4ccc(C(=O)NC5CC5)cc4)n3n2)s1` [Example 2-9], the IC50 at TTK (setting [1]) was 19.7 nM; in the assay on A549 (setting [2]), 0.5 to 1 µM. As to `O=C(NC1CC1)c1ccc(-c2cnc3c(NCC4CCOCC4)cc(N4CCCCC4)nn23)cc1` [Example 2-12], the IC50 is 8.4 nM on TTK (setting [1]) and 0.05 to 0.5 µM in the assay with A549 (setting [2]).

For `O=C(NC1CC1)c1ccc(-c2cnc3c(NCC4CCOCC4)cc(NC4CCOCC4)nn23)cc1` [Example 2-13], the values for the 50% inhibitory concentration (IC50) on TTK (setting [1]) and in the assay with A549 (setting [2]) were 5.9 nM and 0.05 to 0.5 µM, respectively. Take `O=C(NC1CC1)c1ccc(-c2cnc3c(NCC4CCOCC4)cc(N4CCOCC4)nn23)cc1` [Example 2-14]: the figures for the IC50 on TTK (setting [1]) and in the assay on A549 (setting [2]) were 9.3 nM and 0.05 to 0.5 µM, respectively. `CN1CCN(c2cc(NCC3CCOCC3)c3ncc(-c4ccc(C(=O)NC5CC5)cc4)n3n2)CC1` [Example 2-15]: the IC50 was 25.7 nM at TTK (setting [1]) and 0.05 to 0.5 µM with A549 (setting [2]). In the case of `O=C(NC1CC1)c1ccc(-c2noc3c(NCC4CCOCC4)nc(NC4CCCC4)nc23)cc1` [Example 3-4, 4-(5-(cyclopentylamino)-7-((tetrahydro-2H-pyran-4-yl)methylamino)isoxazolo[4,5-d]pyrimidin-3-yl)-N-cyclopropylbenzamide], the IC50 on TTK (read-out: TTK IC50) turned out to be 527 nM.
